These results are taken from US9782395B2, “2,4-thiazolidinedione derivatives in the treatment of central nervous system disorders” (MINORYX THERAPEUTICS S.L., priority 2014, dated 2017).

Where two headings read alike, the source gives them in different places.

A short description of data set [1]: Brain plasma ratio at Cmax after single oral dose of Pioglitazone. Type of data set: in vivo, male C57BL/6 mice. Conditions: male, C57BL/6, mouse, single oral Pioglitazone 4.5 mg/kg, parent and metabolites quantified, read-out: percentage brain plasma ratio. The procedure:
The brain plasma ratios of Pioglitazone, MIV, MIII and MII following oral dosing of a single administration of Pioglitazone at 4.5 mg/kg in male C57BL/6 mice.
The brain-plasma ratio was calculated based on levels of Pioglitazone, MIV, MIII and MII in plasma and brain quantified at C max (maximal concentration) following oral dosing of a single administration of Pioglitazone at 4.5 mg/kg in male C57BL/6 mice.

The conditions of data set [2]: diabetic preclinical models; cited from earlier work.
Data set [3] can be described thus: Brain plasma ratio from AUC of plasma and brain profiles after single oral dose of Pioglitazone or MIV. Type of data set: in vivo, male C57BL/6 mice. Conditions: male, C57BL/6, mouse, single oral 4.5 mg/kg of the compound itself, read-out: percentage brain-plasma ratio. The protocol: The brain plasma ratios of Pioglitazone and MIV and following oral dosing of a single administration of either Pioglitazone or M-IV both at 4.5 mg/kg in male C57BL/6 mice. […] The brain-plasma ratio was calculated based on the pharmacokinetics curves of plasma and brain concentration-time profiles calculated as area under the curves of Pioglitazone and following oral dosing of a single administration of either Pioglitazone or MIV both at 4.5 mg/kg in male C57BL/6 mice.

Data set [4] in a line: Pharmacokinetic profile and brain distribution after single oral and intravenous dose. Type of data set: in vivo, male C57 BL/6 mice. The protocol:
Protocol: Pharmacokinetic parameters and brain distribution of 5-(4-(2-(5-(1-hydroxyethyl)pyridine-2-yl)ethoxy)benzyl)thiazolidine-2,4-dione (racemate or stereoisomers) following single oral (4.5 mg/kg) and intravenous (1 mg/kg) dose administration to male C57 BL/6 mice were determined. Blood samples and brain samples were collected pre-dosing and different times post dosing for both oral and i.v pharmacokinetics. All samples were processed for analysis by protein precipitation using acetonitrile and analyzed with fit-for-purpose LC/MS/MS method. The lower limit of quantification (LLOQ) in plasma and brain for 5-(4-(2-(5-(1-hydroxyethyl)pyridine-2-yl)ethoxy)benzyl)thiazolidine-2,4-dione (1) is 0.99 ng/mL. Pharmacokinetic parameters were calculated using the non-compartmental analysis tool of Phoenix WinNonlin.

For data set [5], the target named is T1, Human recombinant monoamine oxidase MAO-A (Homo sapiens, UniProt P21397).
T1 construct: purchased Sigma Aldrich M7316
T1 sequence (P21397 1-527): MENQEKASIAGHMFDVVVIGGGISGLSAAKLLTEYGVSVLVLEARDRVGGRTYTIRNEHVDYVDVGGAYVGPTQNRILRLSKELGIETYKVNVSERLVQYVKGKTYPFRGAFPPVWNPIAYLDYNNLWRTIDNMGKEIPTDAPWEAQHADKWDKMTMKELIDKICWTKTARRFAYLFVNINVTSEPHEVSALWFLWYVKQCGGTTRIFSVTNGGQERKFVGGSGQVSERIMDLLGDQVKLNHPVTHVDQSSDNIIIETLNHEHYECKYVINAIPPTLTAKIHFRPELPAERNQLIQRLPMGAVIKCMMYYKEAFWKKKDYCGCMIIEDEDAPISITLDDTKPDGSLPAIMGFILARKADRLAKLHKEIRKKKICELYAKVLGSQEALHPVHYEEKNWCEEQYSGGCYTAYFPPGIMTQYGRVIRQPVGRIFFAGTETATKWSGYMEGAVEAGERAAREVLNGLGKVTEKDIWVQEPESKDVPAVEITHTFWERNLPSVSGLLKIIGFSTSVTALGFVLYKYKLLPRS
Description: MAO-A inhibition, kynuramine fluorescence assay. The data set is classed as biochemical. An excerpt:
(§1) Protocol: Human recombinant monoamine oxidase proteins MAO-A and MAO-B were purchased from Sigma Aldrich (Reference M7316 and M7441 respectively). In order to monitor the MAO enzymatic activities and their inhibition rate a fluorescence based assay was used. The substrate for the assay, kynuramine, is non-fluorescent until undergoing oxidative deamination by MAOs resulting in the fluorescent product 4-hydroxyquinoline. Kynuramine is a substrate for both MAO-A and -B (non-specific substrate). Clorgiline and Deprenyl (Sigma Aldrich) were used as controls for specific inhibition of MAO-A and MAO-B respectively.

Data set [6] has as its system X-linked adrenoleukodystrophy fibroblasts. In words: X-ALD patient fibroblasts, cell survival (MTT). Type of data set: cell-based, human. Conditions: at 3, M, vs non-treated, 24 hours. The procedure: Human control and X-linked adrenoleukodystrophy fibroblasts were obtained from Coriell (Candem, USA). Cells were grown in Dulbecco's modified Eagle medium containing 10% foetal bovine serum, 100 U/ml penicillin and […], at 37° C. in humidified 95% air/5% CO2, to 80-90% confluence. To perform our experiments, Dulbecco's modified Eagle medium without D-glucose, pyruvate or L-glutamine was used. Cells were cultured in this medium supplemented with 1 g/l of glucose or 1 g/l of galactose and 10% foetal bovine serum for 24 hours incubated with increasing doses of MIV (3, 10 and 30 μM).
The determination of MTT was performed as described by Mosmann J. Immunol. Methods 1983, 65, 55-63 and by Hansen J. Immunol. Methods 1989; 119, 203-210. This method is based on the ability of viable but not dead cells to convert the tetrazolium salt (MTT) to colored formazan.
For the determination of ATP levels, 2×10^4 cells/well were seeded in 96 well cell culture plate in complete medium. After 16-18 h cells, were lysed in 20 μl lysis buffer and 10 μl of lysate was used to measure ATP levels using ATP determination Kit (Molecular Probes, Invitrogen). 1 μl each of the remaining lysate was used for protein measurement.

Data set [7] deals with experimental autoimmune encephalomyelitis (EAE).
In data set [8] the test system is primary rat cortical neurons injured by glutamate. In words: Primary cortical neurons injured by glutamate, survival by MTT. The data set is classed as cell-based. The procedure: Protocol: Rat cortical neurons were cultured as described by Singer (J Neurosci. 1999 Apr. 1; 19(7):2455-63) and Callizot (J Neurosci Res. 2013 May; 91(5):706-16).
Foetuses were collected and immediately placed in ice-cold Leibovitz medium. Cortex was treated with a trypsin-EDTA solution and the dissociation was stopped by addition of Dulbecco's modified Eagle's medium (DMEM) with glucose (Pan Biotech), containing DNAse I and 10% fetal calf serum (FCS). Cells were mechanically dissociated and centrifuged. The pellet was resuspended in a defined culture medium with 10 ng/ml of brain-derived neurotrophic factor (BDNF). The cells were seeded in 96-well plates precoated with poly-L-lysine and were cultured at 37°. The medium was changed every 2 days. The cortical neurons were intoxicated with glutamate after 13 days of culture.
Briefly, on day 13 of culture, BDNF and test compound were pre-incubated with primary cortical neurons for 1 hour before glutamate exposure. Glutamate was added to a final concentration of 40 μM diluted in control medium in presence of BDNF or test compound for 20 min.
After 20 min, glutamate was washed out and fresh culture medium with BDNF or test compound was added for additional 48 hours. The survival evaluation was done by a MTT assay performed with CellTiter 96® Aqueous One Solution Cell Proliferation Assay (Promega).

For data set [9], the target named is T2, Human recombinant monoamine oxidase MAO-B (Homo sapiens, UniProt P27338).
T2 construct: purchased Sigma Aldrich M7441
T2 sequence (P27338 1-520): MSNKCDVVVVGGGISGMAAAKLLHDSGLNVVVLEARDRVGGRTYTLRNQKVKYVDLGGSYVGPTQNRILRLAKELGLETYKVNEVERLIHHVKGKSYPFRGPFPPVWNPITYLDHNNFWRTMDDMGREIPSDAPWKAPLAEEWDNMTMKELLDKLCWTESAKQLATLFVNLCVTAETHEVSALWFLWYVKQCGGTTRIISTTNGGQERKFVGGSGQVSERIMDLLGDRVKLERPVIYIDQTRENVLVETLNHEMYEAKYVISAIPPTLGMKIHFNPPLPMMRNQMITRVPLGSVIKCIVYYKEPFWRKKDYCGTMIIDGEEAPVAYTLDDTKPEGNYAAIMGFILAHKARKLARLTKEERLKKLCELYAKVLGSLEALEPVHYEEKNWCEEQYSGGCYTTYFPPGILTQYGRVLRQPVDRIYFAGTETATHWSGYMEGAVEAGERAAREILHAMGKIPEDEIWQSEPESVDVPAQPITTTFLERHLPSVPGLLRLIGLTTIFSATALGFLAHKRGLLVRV
In words: MAO-B inhibition, kynuramine fluorescence assay. Type of data set: biochemical.
Text: as §1

Data set [10] concerns Rat spinal cord (SC) motor neurons injured by glutamate. In words: Spinal cord motor neurons injured by glutamate, survival by MAP-2 immunostaining. Conditions: 1 μM, glutamate 10 μM 20 min, 48 hours, p<0.05. The data set is classed as cell-based. The procedure: Protocol: Rat spinal cord (SC) motor neurons were cultured as described by Martinou (Neuron. 1992 April; 8(4):737-44) and Wang (PLoS Genet. 2013; 9(9)). Briefly, pregnant female rats of 14 days gestation were killed by cervical dislocation and foetuses were collected and immediately placed in ice-cold L15 Leibovitz medium. Spinal cord was treated for 20 min at 37° C. with a trypsin-EDTA. The dissociation was stopped by addition of Dulbecco's modified Eagle's medium (DMEM) with glucose (Pan Biotech), containing DNAse I and 10% fetal calf serum (FCS). Cells were mechanically dissociated and they were then centrifuged. The pellet was resuspended in a defined culture medium with 10 ng/ml of brain-derived neurotrophic factor (BDNF). The cells were seeded in 96-well plates precoated with poly-L-lysine and were cultured at 37°. The medium was changed every 2 days.
Briefly, on day 13 of culture, BDNF or test compound was pre-incubated with primary Spinal cord (SC) motor neurons for 1 hour before glutamate exposure. Glutamate was added to a final concentration of 10 μM diluted in control medium in presence of BDNF or test compound for 20 min. […]
For each condition 6 wells were assessed, 30 pictures per well were taken using ImageXpress (Molecular Device) with 20× magnification. […]

As for `CC(=O)c1ccc(CCOc2ccc(CC3SC(=O)NC3=O)cc2)nc1` (stereo not shown) [MIII, 5-(4-(2-(5-acetyl-2-pyridyl)ethoxy)benzyl)-2,4-thiazolidinedione], in data set [1] (brain and plasma), the Kp was determined as 0.07. For the same molecule, the “pharmacological activity relative to Pioglitazone” value in [2] was “less active than Pioglitazone”.
Regarding `CCc1ccc(C(O)COc2ccc(CC3SC(=O)NC3=O)cc2)nc1` (stereo not shown) [MII], in data set [1] (in vivo), the Kp stood at 0.01. Besides, the “pharmacological activity relative to Pioglitazone” value in data set [2] was “less active than Pioglitazone”.
Take `CCc1ccc(CCOc2ccc(CC3SC(=O)NC3=O)cc2)nc1` (stereo not shown) [Pioglitazone, reference compound]: the Kp in data set [3] is 0.08; in data set [1] (brain and plasma) it was 0.09.
The term bioavailability denotes the share of a dose that reaches the circulation, judged against a reference dose that is usually intravenous. Higher therefore signals much systemic uptake. By half-life is commonly meant the time needed for the level to fall by half in the phase considered. As usually defined, the Tmax is the time from dosing to the highest level. A word on the IC50: it is the point on the concentration scale where inhibition reaches its midpoint. Consider `CC(O)c1ccc(CCOc2ccc(CC3SC(=O)NC3=O)cc2)nc1` (racemic) [compound (1), 5-[4-[2-(5-(1-hydroxyethyl)-2-pyridinyl)ethoxy]benzyl]-2,4-thiazolidinedione], for which, in data set [4] (both intravenous and oral profiles), the “brain concentrations observed until” value amounted to 8 h. The Kp in data set [4] (male, mouse, brain and plasma, C57BL/6 mice, single oral 4.5 mg/kg / i.v. 1 mg/kg, read-out: brain-to-plasma exposure (AUClast) ratio) was found to be 0.12; in data set [3], 0.12; in data set [1] (brain and plasma), 0.13. In [4] (male, mouse, plasma, oral 4.5 mg/kg vs i.v. 1 mg/kg, C57BL/6 mice), this molecule registered a bioavailability of 85%. Further, the clearance in data set [4] (male, mouse, plasma, single intravenous 1 mg/kg, C57BL/6 mice, read-out: systemic plasma clearance) amounted to 11.8 mL/min/kg. Also, in data set [4] (male, mouse, plasma, single intravenous 1 mg/kg, C57BL/6 mice, read-out: terminal elimination plasma half-life (converted)), the half-life was 107 min. The Tmax amounted to 30 min in [4] (male, mouse, plasma, single oral 4.5 mg/kg, C57BL/6 mice, read-out: Tmax in plasma) and 30 min in data set [4] (male, mouse, C57BL/6 mice, brain, read-out: Tmax in brain). Moreover, in data set [4] (single oral 4.5 mg/kg, 1 animal), the “plasma concentrations observed until” value amounted to 24 h. The “inhibition of MAO A protein” value in data set [5] is recorded as “did not inhibit”. The “increase in cell survival” value in data set [6] is on record as 20%. For the same molecule, the “development and severity of EAE (clinical scores)” value in data set [7] (bid from day 5 post immunization for 15 days, three increasing doses) was “reduces the development and severity”. In [7] (mouse, in vivo), the “body weight loss associated to treatment” value is given as “No body weight loss”. For the same molecule, the “hematological toxicity associated to treatment” value in [7] (mouse, in vivo) was “no significant hematological toxicity”. Also, in data set [8] (3 μM, glutamate 40 μM 20 min, 48 hours), the “protective effect on glutamate injury (survival, MTT)” value is listed as “full protective effect”. For the same molecule, the IC50 in data set [9] turned out to be 70.5 nM. Further, in [10], the “effect on cell survival vs the control with glutamate” value was “protective effect”.

B1: BDNF: brain-derived neurotrophic factor, reference compound (protein, UniProt P23560 19-247, looked up)
Neurotrophic factor BDNF …: APMKEANIRGQGGLAYPGVRTHGTLESVNGPKAGSRGLTSLADTFEHVIEELLDEDQKVRPNEENNKDADLYTSRVMLSSQVPLEPPLLFLLEEYKNYLDAANMSMRVRRHSDPARRGELSVCDSISEWVTAADKKTAVDMSGGTVTVLEKVPVSKGQLKQYFYETKCNPMGYTKEGCRGIDKRHWNSQCRTTQSYVRALTMDSKKRIGWRFIRIDTSCVCTLTIKRGR
Regarding B1, the “protective effect on glutamate injury (survival, MTT)” value in [8] (50 ng/ml, reference compound) was “full protective effect”.
